The values below come from US20220202912A1, “Polypeptides in Preparation of Drugs for Treatment or Prevention of Rheumatoid Arthritis” (priority 2011, published 2022).

One assay concerns IL-1β. The experiment in a line: IL-1β production by mouse peritoneal macrophages (LPS, ELISA). In kind it is cell-based, C57BL/6 mice. As to conditions: 50 μmoL/L, LPS 5 μg/mL, 48 h. As for the experimental part: In the test, mice are divided into […], namely a blank control group, a lipopolysaccharide (LPS) model group, a dexamethasone group, and mPEG-SC20k-HM-3 groups at different doses (0.56, 1.12, 2.25, 4.50, 9.00 μmol/L).
(1) IL-1 production: mice are intraperitoneally injected with 1 mL of broth medium (containing 6% of starch). After three days, mouse peritoneal macrophages are taken aseptically and washed twice with RPMI 1640 medium, and the cell concentration is adjusted to 2×10^6 cells/mL. The cells are injected into a 24-well culture plate, 1 mL per well, and the cells are incubated in a cell incubator for 3 h, and vibrated once every 30 min to make the cells fully adhere. Then the cells are washed twice with culture solution to remove non-adherent cells, are cultured continuously for 48 h after administration, and are centrifuged at 1000 r for 15 min. The supernatant is collected as a sample with IL-1β to be tested. (2) Determination of IL-1 content: various solutions are prepared; tested samples and standard substances with different concentrations (100 μL/well) are added into the corresponding wells, reaction wells are sealed with plate-sealing adhesive tape, and incubation is performed at 37° C. for 90 min; the plate is washed four times; biotinylated antibody working solution (100 μL/well) is added, the reaction wells are sealed with plate-sealing adhesive tape, and incubation is performed at 37° C. for 60 min; the plate is washed four times; enzyme conjugate working solution (100 μL/well) is added, the reaction wells are sealed with plate-sealing adhesive tape, and incubation is performed at 37° C. for 30 min; the plate is washed four times; chromogenic reagent (100 μL/well) is added, and incubation is performed at 37° C. for 10-20 min in the absence of light; stop solution (100 μL/well) is added, and the OD 450 nm absorbance is measured immediately after uniform mixing (within 5 min).

Another assay deals with cotton ball granuloma. In kind it is in vivo, SD rats. The settings on record: day 8; 5 mg/kg sc once a day (Dexamethasone, G2). The protocol:
The rats are randomly divided into a model control group, a positive control (dexamethasone) group, and mPEG-SC20k-HM-3 groups using subcutaneous injection at a high dose, a medium dose and a low dose, a total of 5 groups, and the drugs are administered to each group of animals by subcutaneous injection, for 7 days in succession.
Rats in each group are anesthetized with pentobarbital sodium (40 mg/kg) by intraperitoneal injection, and the abdominal coat is cut off. The skin in the middle of the lower abdomen is cut open under aseptic condition, and the incision is about 1 cm long. The subcutaneous tissue is expanded by vascular forceps, and 30 mg of sterile dry cotton balls (weighed accurately by an electronic balance before the test, and undergoing conventional autoclaving and drying for later use) are implanted hypodermically into the groin on one side. The incision is sutured, and an appropriate amount of amoxicillin is sprinkled on the incision to prevent infection.
The drug is administered on the same day after surgery, and is administered for 7 days in succession. On day 8, the rats are killed by cervical dislocation, the cotton balls are removed surgically, the fat tissue is removed, and the […] at 60° C. The mass of granuloma is expressed in mg (granulomatoma)/100 g (body weight). The granuloma mass difference between each administration group and the model control group is compared, and the inhibition rate is calculated. Data statistical analysis is performed on significant differences between the groups.
Inhibition rate (%)=(average granuloma mass of model control group−average granuloma mass of administration group)/average granuloma mass of model control group×100%.

The test system of assay [1] is tumor in BALB/c nude mice. The experiment in a line: in vivo pharmacodynamics (antitumor) of PEG-modified HM-3 in BALB/c nude mice. The settings on record: BALB/c nude mice. The text has this: Four different types of mPEG-ALD and mPEG-SC with different molecular weights are selected to modify the polypeptide […](named HM-3), i.e., mPEG-ALD5k, mPEG-ALD10k, mPEG-SC10k, mPEG-SC20k, and modification reaction conditions are explored and optimized.

The subject of a further assay is CIA mouse models. The experiment in a line: collagen-induced arthritis (CIA) mouse models. As to conditions: for therapeutic effect on collagen-induced arthritis in mice (conclusion): mouse, in vivo. In kind it is in vivo, DBA/1 mice.
In another assay the test system is AIA rat models. Description: adjuvant-induced arthritis (AIA) rat models. The format is in vivo, SD rats. The settings on record: for therapeutic effect on adjuvant-induced arthritis in rats (conclusion): rat, in vivo.
Setting [2] is: Table 1, methotrexate 1 mg/kg, once every 5 days, three times.
Where [3] appears, read: Tables 3 and 5, methotrexate 1 mg/kg.
[4] abbreviates: Table 2, methotrexate 1 mg/kg, once every 5 days, three times.
Setting [5] is: Tables 4 and 6, methotrexate 1 mg/kg.
Where [6] appears, read: high dose 0.8 mg/kg twice a day, 10 days.
Setting [7] is: low dose 0.2 mg/kg twice a day, 10 days.
The mark [8] stands for this setting: medium dose 0.4 mg/kg twice a day, 10 days.
Where [9] appears, read: high dose 0.4 mg/kg twice a day, 10 days.
Where [10] appears, read: low dose 0.1 mg/kg twice a day, 10 days.
The mark [11] stands for this setting: medium dose 0.2 mg/kg twice a day, 10 days.
[12] abbreviates: high dose 3.2 mg/kg twice a day, 10 days.
Setting [13] is: low dose 0.8 mg/kg twice a day, 10 days (polypeptide II).
The mark [14] stands for this setting: medium dose 1.6 mg/kg twice a day, 10 days.
Where [15] appears, read: high dose 1.6 mg/kg three times a day, 10 days.
Setting [16] is: low dose 0.4 mg/kg three times a day, 10 days.
Where [17] appears, read: medium dose 0.8 mg/kg three times a day, 10 days.

Marks after values point to notes of the source that are not given here. Where no end group is shown, it is not given here.

In turn, `C[C@@H]1C[C@H]2[C@@H]3CCC4=CC(=O)C=C[C@]4(C)[C@@]3(F)[C@@H](O)C[C@]2(C)[C@@]1(O)C(=O)CO` [Dexamethasone, reference compound] displayed an IL-1β content in the assay with IL-1β of 208.19 ± 13.78 pg/mL. Moreover, the inhibition at 50 µM in the assay on IL-1β (Mus musculus, Peritoneal macrophage, read-out: Inhibition rate) turned out to be 79%. Further, in the assay with cotton ball granuloma, the “Inhibition rate of cotton ball granuloma” value is listed as 61.59** % and the cotton ball granuloma is 0.11 ± 0.04 mg(cotton ball granuloma)/100 g(weight).

For `CC(=O)O[C@H]1C(=O)[C@@]2(C)[C@H]([C@H](OC(=O)c3ccccc3)[C@]3(O)C[C@H](OC(=O)[C@H](O)[C@@H](NC(=O)c4ccccc4)c4ccccc4)C(C)=C1C3(C)C)[C@]1(OC(C)=O)CO[C@@H]1C[C@@H]2O` [paclitaxel, reference compound], the “antitumor effect in vivo” value in assay [1] is reported as 44.50%.

Take `CN(Cc1cnc2nc(N)nc(N)c2n1)c1ccc(C(=O)N[C@@H](CCC(=O)O)C(=O)O)cc1` [positive control, methotrexate, reference compound]: in the assay on CIA mouse models (setting [2]), the clinical scoring was determined as 8.1 ± 1.2, the swelling of joints was determined as 0.76 ± 0.17 mm and the swelling of paws was determined as 0.95 ± 0.19 mm. Also, in the assay on CIA mouse models (setting [3]), the clinical scoring turned out to be 2.33 ± 2.73, the swelling of joints was −0.19 mm and the swelling of paws turned out to be 0.21 ± 0.45 mm. In addition, in the assay with AIA rat models (setting [4]), the clinical scoring was 5.0 ± 1.0, the “swelling of left paw” value was found to be 3.60 ± 0.72 mm and the “swelling of right paw” value was found to be 0.68 ± 0.19 mm. In the assay with AIA rat models (setting [5]), the clinical scoring is reported as 4.00 ± 0.00, the “swelling of left paw” value stood at 3.23 ± 1.20 mm and the “swelling of right paw” value is recorded as 0.13 ± 0.33 mm.

For the molecule “ACDCRGDCFCGGGGIVRRADRAAVP (cysteine pairing not given here) [polypeptide I, No. 1]”, the clinical scoring with CIA mouse models (setting [6]) was 10.4 ± 1.6; in the assay on CIA mouse models (setting [7]), 9.7 ± 1.5; with CIA mouse models (setting [8]) it was 9.1 ± 1.4; in the assay with AIA rat models (setting [9]), 6.0 ± 1.2; in the assay on AIA rat models (setting [10]), 5.7 ± 1.1; in the assay with AIA rat models (setting [11]), 5.3 ± 1.0. The swelling of joints in the assay on CIA mouse models (setting [6]) is reported as 1.05 ± 0.31 mm; with CIA mouse models (setting [7]) it was 0.93 ± 0.23 mm; in the assay with CIA mouse models (setting [8]) it was 0.76 ± 0.17 mm. For the same molecule, the swelling of paws in the assay on CIA mouse models (setting [6]) was found to be 1.29 ± 0.26 mm; with CIA mouse models (setting [7]), 1.10 ± 0.22 mm; with CIA mouse models (setting [8]), 0.92 ± 0.18 mm. In addition, the “therapeutic effect on collagen-induced arthritis in mice (conclusion)” value in the assay on CIA mouse models is reported as “CONCLUSION: polypeptide I has therapeutic effect on collagen-induced arthritis in mice”. For the same molecule, the “swelling of left paw” value in the assay with AIA rat models (setting [9]) was 4.77 ± 0.95 mm; in the assay on AIA rat models (setting [10]) it was 4.27 ± 0.85 mm; in the assay on AIA rat models (setting [11]), 3.81 ± 0.76 mm. Also, the “swelling of right paw” value amounted to 1.25 ± 0.30 mm with AIA rat models (setting [9]), 1.18 ± 0.31 mm in the assay on AIA rat models (setting [10]) and 0.79 ± 0.18 mm with AIA rat models (setting [11]). Moreover, the “therapeutic effect on adjuvant-induced arthritis in rats (conclusion)” value in the assay on AIA rat models is recorded as “CONCLUSION: polypeptide I has therapeutic effect on adjuvant-induced arthritis in rats”.

With “IVRRADRAAVPGGGGRGD [polypeptide II, No. 2]”, the clinical scoring in the assay with CIA mouse models (setting [12]) is reported as 2.67 ± 2.34; with CIA mouse models (setting [13]), 2.33 ± 3.14; in the assay with CIA mouse models (setting [14]), 5.83 ± 2.93; in the assay with AIA rat models (setting [15]), 7.29 ± 3.40; in the assay with AIA rat models (setting [16]), 8.29 ± 4.86; in the assay with AIA rat models (setting [17]) it was 6.57 ± 4.24. For the same molecule, the swelling of joints in the assay on CIA mouse models (setting [12]) is −0.18 mm; in the assay with CIA mouse models (setting [13]), −0.19 mm; in the assay with CIA mouse models (setting [14]) it was 0.35 mm. Moreover, the swelling of paws was 0.23 ± 0.35 mm with CIA mouse models (setting [12]), 0.13 ± 0.28 mm in the assay with CIA mouse models (setting [13]) and 0.45 ± 0.41 mm in the assay with CIA mouse models (setting [14]). Moreover, the “therapeutic effect on collagen-induced arthritis in mice (conclusion)” value in the assay with CIA mouse models is reported as “CONCLUSION: polypeptide II has therapeutic effect on collagen-induced arthritis in mice”. Also, the “swelling of left paw” value is on record as 4.98 ± 1.97 mm with AIA rat models (setting [15]), 5.03 ± 1.99 mm with AIA rat models (setting [16]) and 4.50 ± 1.95 mm with AIA rat models (setting [17]). In addition, the “swelling of right paw” value came to 1.97 ± 1.56 mm with AIA rat models (setting [15]), 1.56 ± 1.66 mm with AIA rat models (setting [16]) and 1.63 ± 1.57 mm with AIA rat models (setting [17]). Moreover, in the assay on AIA rat models, the “therapeutic effect on adjuvant-induced arthritis in rats (conclusion)” value was “CONCLUSION: polypeptide II has therapeutic effect on adjuvant-induced arthritis, and its effect is higher than that of polypeptide I”. The “antitumor effect in vivo” value in assay [1] was found to be 43.92%.
